From patent US11267844B2, “Spirothietane nucleosides” (Janssen Pharmaceutica NV, priority 2017, dated 2022)

Columns and labels:
[1] = target: HCV polymerase (Hepatitis C virus genotype 1b, UniProt Q9WMX2); test: Biochemical HCV polymerase inhibition
[2] = target: T1, dengue virus NS5 polymerase domain (DENVpol, serotype 2, New Guinea C strain) (Dengue virus type 2, UniProt P14340); test: Dengue virus polymerase inhibition assay; format: biochemical, dengue virus serotype 2
T1 construct: The enzyme activity of dengue virus NS5 polymerase domain
Method: The enzyme activity of dengue virus NS5 polymerase domain (DENVpol, serotype 2, New Guinea C strain) is measured as an incorporation of tritiated NMP into acid-insoluble RNA products. DENVpol assay reactions contain recombinant enzyme, heteropolymeric RNA, about 0.5 μCi tritiated NTP, 0.33 μM of competing cold NTP, 40 mM HEPES (pH 7.5), 3 mM dithiothreitol, and 2 mM MgCl2. Standard reactions are incubated for 3 hours at 30° C., in the presence of increasing concentration of inhibitor. At the end of the reaction, RNA is precipitated with 10% TCA, and acid-insoluble RNA products are filtered on a size exclusion 96-well plate. After washing of the plate, scintillation liquid is added and radiolabeled RNA products are detected according to standard procedures with a Trilux Topcount scintillation counter. The compound concentration at which the enzyme-catalyzed rate is reduced by 50% (IC50) is calculated by fitting the data to a non-linear regression (sigmoidal).

Chain of HCV polymerase (Q9WMX2 2420-3010): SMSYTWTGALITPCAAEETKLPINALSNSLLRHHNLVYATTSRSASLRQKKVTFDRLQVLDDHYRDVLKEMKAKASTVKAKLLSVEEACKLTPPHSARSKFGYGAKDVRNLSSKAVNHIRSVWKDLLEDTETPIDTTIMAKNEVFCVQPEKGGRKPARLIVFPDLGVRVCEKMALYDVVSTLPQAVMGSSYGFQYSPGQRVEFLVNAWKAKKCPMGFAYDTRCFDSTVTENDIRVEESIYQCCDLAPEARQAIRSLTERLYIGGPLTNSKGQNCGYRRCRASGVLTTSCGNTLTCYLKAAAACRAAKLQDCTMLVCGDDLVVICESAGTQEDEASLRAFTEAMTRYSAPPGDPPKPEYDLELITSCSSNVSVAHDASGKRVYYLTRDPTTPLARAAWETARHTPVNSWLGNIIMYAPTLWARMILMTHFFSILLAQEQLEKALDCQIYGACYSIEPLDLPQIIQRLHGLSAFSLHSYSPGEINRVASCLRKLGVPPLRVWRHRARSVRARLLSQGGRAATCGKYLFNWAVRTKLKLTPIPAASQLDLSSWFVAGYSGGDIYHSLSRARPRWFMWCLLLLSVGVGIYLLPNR

With `O=c1ccn([C@@H]2O[C@H](COP(=O)(O)OP(=O)(O)OP(=O)(O)O)[C@@H](O)[C@]23CCS3)c(=O)[nH]1` [Compound 58] the IC50 [1] was 740 nM and the IC50 [2] was 49700 nM.
In the case of `Nc1ccn([C@@H]2O[C@H](COP(=O)(O)OP(=O)(O)OP(=O)(O)O)[C@@H](O)[C@]23CCS3)c(=O)n1` [Compound 59], the IC50 [1] is reported as 320 nM and the IC50 [2] is reported as 2910 nM.
With `O=c1ccn([C@@H]2O[C@](F)(COP(=O)(O)OP(=O)(O)OP(=O)(O)O)[C@@H](O)[C@]23CCS3)c(=O)[nH]1` [Compound 60] the IC50 [1] was 690 nM and the IC50 [2] was > 10000 nM.
Work on `Nc1ccn([C@@H]2O[C@](F)(COP(=O)(O)OP(=O)(O)OP(=O)(O)O)[C@@H](O)[C@]23CCS3)c(=O)n1` [Compound 61] yielded an IC50 [1] of 160 nM and an IC50 [2] of 2440 nM.
`Nc1nc2c(ncn2[C@@H]2O[C@H](COP(=O)(O)OP(=O)(O)OP(=O)(O)O)[C@@H](O)[C@]23CCS3)c(=O)[nH]1` [Compound 63] was tested, and the IC50 [1] was 180 nM and the IC50 [2] was > 10000 nM.
